According to patent publication US20220031607A1, “INJECTION COMPOSITION CONTAINING FAB I INHIBITOR, AND PREPARATION METHOD THEREFOR” (CRYSTALGENOMICS, INC., priority 2019, published 2022):

Experiments:
[1] = Evaluation of water solubility according to pH; format: physicochemical; settings: thermodynamic from solid
Procedure: Experimental Example 1-1: […] After completion of the stirring, insoluble substances that may remain were removed by first centrifugation and second filtration with 0.22 μm filter. The substances were diluted with organic solvent methanol and analyzed by HPLC for […] of the solubility. […] As the pH increases, the solubility tends to decrease rapidly.

[2] = Solubility in excipients and solvents by HPLC analysis; format: physicochemical; settings: for solubility at 1 h: thermodynamic from solid
Procedure: The excipients approved as pharmaceutical additives and solvents that can be used for future process studies were selected as shown in Table 1. A small amount of the compound of formula 1 was added and dissolved. The addition operation was repeated until completely dissolved. Finally, it was stirred at room temperature for one hour and then filtered to determine the concentration of the compound of formula 1 dissolved in the filtrate through HPLC analysis.
20 μL of each the test solution and the standard solution were tested according to a liquid chromatography method (HPLC) of general test methods of the Korean Pharmacopoeia under the following conditions, and the peak area of the main component of each solution was measured.
Operating Condition and Calculation
Detector: UV spectrophotometer (measurement wavelength 286 nm)
Column: Aegispak C18-L (4.6 mm×250 mm, 5 μm) column
Column temperature: 25° C.
Mobile phase: Acetonitrile:water=3:2

[3] = tested on: Methicillin-susceptible Staphylococcus aureus strains; assay: Drug susceptibility (MIC) of methicillin-susceptible clinical isolates; format: cell-based; settings: Methicillin-susceptible, n = 103
Procedure: (§1) In order to verify the inhibitory effect of the compound of formula 1 on antibiotic-resistant strains, drug susceptibility was evaluated by treating the compound of formula 1 with Staphylococcus aureus phenotype isolated from each patient. In an in vitro test for antibiotic development, the most important result can be MIC90 (minimum inhibitory concentration required to inhibit the growth of 90% of the total bacterial population). […] Appelbaum at Hershey Hospital who is recognized for its authority in the field of anti-infection worldwide.

[4] = tested on: Methicillin-resistant Staphylococcus aureus (MRSA) strains; assay: Drug susceptibility (MIC) of MRSA clinical isolates; format: cell-based; settings: Methicillin-resistant, n = 100
Procedure: as §1

[5] = tested on: Staphylococcus aureus ATCC 29213 (MSSA) and 13B-382 (MRSA); assay: Pharmacokinetic/pharmacodynamic analysis in neutropenic mouse thigh infection model; format: in vivo, ICR mouse; settings: oral administration
Procedure: (§2) For the compound of formula 1, pharmacokinetic/pharmacodynamic experiments were conducted using a mouse infection model. To this end, experiments were conducted with Staphylococcus aureus ATCC 29213 (MSSA, standard strain) and 13B-382 (MRSA, clinical strain). As a medium, Mueller-Hinton broth or Cation-adjusted Mueller-Hinton broth was used. For the susceptibility test (minimum inhibitory concentration (MIC)), the compound of formula 1 was used.
An aseptic (Specific pathogen free, SPF) female, 6 weeks old (23˜27 g) ICR mouse (Orient Bio Inc, Gapyeong, Korea) was used, and the experiment was carried out in compliance with the regulations and procedures with the permission of the Ethics committees for animal experiments in accordance with the Animal Protection Act and the Laboratory Animal Act. […]
After 24 hours of drug administration, the mouse was euthanized with carbon dioxide gas and its thigh was separated, put in physiological saline, and cut finely with a homogenizer (Kinematica AG/Polytron®). […] The number of viable cells was counted and recorded. The results were expressed as log10 CFU/thigh, and the measurement limit of the number of viable cells in the laboratory was 1×10^2 CFU/thigh.
T/MIC was evaluated as an index to determine the effect of antibiotics in combination with the antimicrobial action and pharmacokinetic results according to the antimicrobial dosage and administration. […]

[6] = tested on: Staphylococcus aureus ATCC 29213 (MSSA, standard strain); assay: Susceptibility test (MIC), standard strain; format: cell-based; settings: Staphylococcus aureus ATCC 29213; read-out: MIC
Procedure: as §2

[7] = tested on: Staphylococcus aureus 13B-382 (MRSA, clinical strain); assay: Susceptibility test (MIC), clinical strain; format: cell-based; settings: Staphylococcus aureus 13B-382, read-out: MIC
Procedure: as §2

Question: With Cc1c(N)cccc1Cn1ccc(OCCc2cccs2)cc1=O [Compound of formula 1, 1-(3-amino-2-methylbenzyl)-4-(2-thiophen-2-yl-ethoxy)-1H-pyridin-2-one] as the compound, how does the solubility at 2 h ([1]; aqueous buffer, aqueous solution pH 3, room temperature) read?
Answer: 6 µg/mL

Question: What about the solubility at 2 h ([1]; aqueous buffer, aqueous solution pH 7, room temperature) of the same compound?
Answer: 2.5 µg/mL

Question: What about the solubility at 2 h ([1]; aqueous solutions, aqueous buffer, pH 4 to 8) of the same compound?
Answer: 2 to 5 µg/mL

Question: What about the solubility at 2 h ([1]; simulated gastric fluid, aqueous solution pH 1.2, room temperature) of the same compound?
Answer: ~1000 µg/mL

Question: What about the solubility at 1 h ([2]; Capryol 90, oil or lipid, in Capryol 90) of the same compound?
Answer: 2900 µg/mL

Question: And the solubility at 1 h ([2]; DMSO, organic solvent or mixture, in DMSO)?
Answer: 180000 µg/mL

Question: And the solubility at 1 h ([2]; Labrasol, aqueous with cosolvent or surfactant or cyclodextrin, in Labrasol)?
Answer: > 20000 µg/mL

Question: And the solubility at 1 h ([2]; PEG 300, organic solvent or mixture, in PEG 300)?
Answer: > 20000 µg/mL

Question: And the solubility at 1 h ([2]; Peceol, oil or lipid, in Peceol)?
Answer: 4400 µg/mL

Question: What about the solubility at 1 h ([2]; Solutol HS 15, aqueous with cosolvent or surfactant or cyclodextrin, in Solutol HS 15) of the same compound?
Answer: ≥ 10000 µg/mL

Question: And the solubility at 1 h ([2]; Tween 20, aqueous with cosolvent or surfactant or cyclodextrin, in Tween 20)?
Answer: > 20000 µg/mL

Question: What about the solubility at 1 h ([2]; Tween 80, aqueous with cosolvent or surfactant or cyclodextrin, in Tween 80) of the same compound?
Answer: ≥ 10000 µg/mL

Question: What about the solubility at 1 h ([2]; glycerol, organic solvent or mixture, in Glycerol) of the same compound?
Answer: 260 µg/mL

Question: And the Solubility ([2]; in Ethanol)?
Answer: 3650 µg/mL

Question: What about the Solubility ([2]; in Methanol) of the same compound?
Answer: 6140 µg/mL

Question: And the Solubility ([2]; in Propylene glycol)?
Answer: 3800 µg/mL

Question: And the solubility at 1 h ([2]; methyl chloride, organic solvent or mixture, in Methyl chloride)?
Answer: ~60000 µg/mL

Question: What about the solubility at 1 h ([2]; oleic acid, oil or lipid, in Oleic acid) of the same compound?
Answer: 2000 µg/mL

Question: What about the solubility at 1 h ([2]; pH 2.0 solution, pH 2, simulated gastric fluid, in pH 2.0) of the same compound?
Answer: 440 µg/mL

Question: And the solubility at 1 h ([2]; soybean oil, oil or lipid, in Soybean Oil)?
Answer: ~8500 µg/mL

Question: And the “MIC Range” value [3]?
Answer: 0.06 to 1.0 µg/mL

Question: What about the MIC50 ([3]; Staphylococcus aureus, read-out: MIC50) of the same compound?
Answer: 0.25 µg/mL

Question: What about the MIC90 ([3]; Staphylococcus aureus, read-out: MIC90) of the same compound?
Answer: 0.25 µg/mL

Question: And the “MIC Range” value [4]?
Answer: 0.06 to 1.0 µg/mL

Question: And the MIC50 ([4]; Staphylococcus aureus, MRSA, read-out: MIC50)?
Answer: 0.25 µg/mL

Question: And the MIC90 ([4]; Staphylococcus aureus, MRSA, read-out: MIC90)?
Answer: 0.25 µg/mL

Question: And the bacteria eradicated ([5]; T/MIC value approximately 20% or higher)?
Answer: more than 99.9%

Question: What about the “T/MIC value at which more than 99.9% of bacteria were eradicated” value ([5]; 24 hours) of the same compound?
Answer: ≥ 20%

Question: What about the MIC [6] of the same compound?
Answer: 0.25 µg/mL

Question: What about the MIC [7] of the same compound?
Answer: 0.25 µg/mL
